Assays:
Assay type in all cases: cell-based
endogenous tau = assay: Western blot of tau levels in M17 neuroblastoma cells
Description: (§1) It was examined whether hexachlorophene can regulate levels of tau in cellular models. Three different cells lines were treated with hexachlorophene at various different doses. M17 neuroblastoma cells were treated with 1 μM, 2 μM, 3 μM, 5 μM, and 10 μM hexachlorophene. HeLa C3 cells were treated with 0.5 μM, 1 μM, 2 μM, 3 μM, and 5 μM hexachlorophene. iHEK280 cells (an inducible tau model) were treated with 0.5 μM, 1 μM, 1.5 μM, 2 μM, and 2.5 μM hexachlorophene. Cell lysates were analyzed by Western blotting for total tau, phosphorylated tau, and actin (as a control). We also analyzed the effect of hexachlorophene on various pathological forms of tau such as the phosphoserine 396 tau form that localizes to the soluble fraction. Hexachlorophene was purchased from Sigma-Aldrich (St. Louis, Mo.). BE(2) M17 neuroblastoma cells were purchased from ATCC (Manassas, Va.). HeLa C3 cells were generated according to Jinwal et al. (J. Neurosci. 2009, 29, 12079-12088). iHEK cells were generated according to Abisambra et al. (J. Neurosci. 2013, 33, 9498-9507). Neuro-2a (N2a) mouse neuroblastoma cells overexpressing human tau-GFP were generated in house.

inducible tau = assay: Western blot of tau levels in iHEK280 cells (inducible tau model); conditions: for levels of phosphorylated tau / levels of total tau: 0.5-2.5 μM
Description: as §1

over-expressed tau = target: T1, over-expressed tau (Homo sapiens, UniProt P10636); assay: Western blot of tau levels in HeLa C3 cells with over-expressed tau; conditions: for phosphorylated tau levels / total tau levels: 0.5-5 μM
T1 construct: expressed in transfected cells; host or cells: HeLa C3 cells
T1 sequence (P10636 1-383 isoform P10636-6): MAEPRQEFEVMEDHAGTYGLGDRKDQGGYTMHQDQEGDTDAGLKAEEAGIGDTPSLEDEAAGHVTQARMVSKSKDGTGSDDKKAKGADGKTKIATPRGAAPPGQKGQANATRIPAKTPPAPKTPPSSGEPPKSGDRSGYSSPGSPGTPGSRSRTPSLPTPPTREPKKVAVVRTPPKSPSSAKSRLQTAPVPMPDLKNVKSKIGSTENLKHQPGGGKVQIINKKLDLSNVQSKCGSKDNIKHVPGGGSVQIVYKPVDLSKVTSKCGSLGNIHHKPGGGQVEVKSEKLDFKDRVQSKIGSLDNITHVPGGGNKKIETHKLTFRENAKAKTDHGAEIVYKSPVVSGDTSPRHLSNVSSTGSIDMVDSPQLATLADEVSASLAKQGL
Description: as §1

human tau-GFP [1] = assay: Western blot of tau in Neuro-2a (N2a) mouse neuroblastoma cells overexpressing human tau-GFP; conditions: nanomolar concentrations, 24 hours
Description: as §1
Neuro-2a (N2a) mouse neuroblastoma cells overexpressing human tau-GFP were examined for the effect of hexachlorophene on tau protein using Western blot analysis. […]

tau aggregates = assay: Thioflavin-S staining of tau aggregates in HEK280 cells
Description: We examined the effect of hexachlorophene on tau aggregation using thioflavin-S staining. Thioflavin S is a mixture of compounds that results from the methylation of dehydrothiotoluidine with sulfonic acid, and it is used to stain tau aggregates. Upon binding tau aggregates, thioflavin S gives a distinct increase in fluorescence emission. Thioflavin-S staining was performed by incubating HEK280 cells with 0.1% thioflavin-S for 5 min, with or without 1 μM hexachlorophene. Cells were also labelled with a primary rabbit polyclonal Tau Antibody diluted with 5% goat serum and a secondary anti-rabbit antibody labeled with red. Cells containing distinct thioflavin-S signals indicating the presence of aggregated protein were scored in many independent fields containing a total of 500 cells.

human tau-GFP [2] = assay: Immunofluorescence and confocal microscopy of Neuro-2a cells overexpressing human tau-GFP; conditions: N2a cells, immunofluorescence, 0.1-3 μM, 24 hours
Description: Neuro-2a (N2a) mouse neuroblastoma cells overexpressing human tau-GFP were examined for the effect of hexachlorophene on tau protein using Western blot analysis. […] Immunofluorescence and confocal microscopy were also used to analyze the effect of hexachlorophene on the cells.

[3] = 24 hours, listed as Hexachlorophene

## Oc1c(Cl)cc(Cl)c(Cl)c1Cc1c(O)c(Cl)cc(Cl)c1Cl [hexachlorophene]
Endogenous tau
  levels of phosphorylated serine 396 tau in the soluble fraction: decreased
Endogenous tau; 10 μM, 24 hours
  phosphorylated (Pser396) tau proteins: completely cleared
Endogenous tau; 1-10 μM, 24 hours
  levels of endogenous (total) tau: decreased
  phosphorylated form of endogenous tau: significantly reduced
Endogenous tau; 1-10 μM, 24 hours, listed as Hexachlorophene
  levels of endogenous (total) tau: significantly reduced
Inducible tau
  levels of phosphorylated serine 396 tau in the soluble fraction: decreased
Inducible tau; 1.5 μM, 24 hours
  phosphorylated tau (Pser396): completely cleared
  total tau: partially cleared
Inducible tau; 2 μM, 24 hours
  phosphorylated tau (Pser396) levels: cleared
  total tau protein: cleared
Inducible tau; 24 hours
  levels of phosphorylated tau: decreased
  levels of total tau: decreased
Inducible tau; [3]
  levels of phosphorylated tau: significantly reduced
  levels of total tau: significantly reduced
over-expressed tau
  levels of phosphorylated serine 396 tau in the soluble fraction: decreased
over-expressed tau; 2 μM, 24 hours
  phosphorylated tau (Pser396): completely cleared
  total tau: partially cleared
over-expressed tau; 24 hours
  phosphorylated tau levels: decreased
  total tau levels: decreased
over-expressed tau; [3]
  phosphorylated tau levels: significantly reduced
  total tau levels: significantly reduced
Human tau-GFP [1]
  phosphorylated tau (Pser396 & Pser199): reduced
  total tau protein: reduced
Tau aggregates; 1 μM
  tau aggregation (thioflavin-S staining): significant reduction
Tau aggregates; 24 hours
  tau aggregates (thioflavin-S signal): reduced
Human tau-GFP [2]
  phosphorylated tau (Pser396 and Pser199): reduced
  total tau protein: reduced
